Results: patent publication US20240368127A1, “HSD17B13 INHIBITORS AND USES THEREOF” (FL2022-001, Inc., priority 2021, published 2024)
Where a name gives a salt, the structure may show the parent alone.

target: T1, Recombinant human HSD17B13 enzyme (Homo sapiens, UniProt Q7Z5P4); test: HSD17b13 NAD(P)H-Glo biochemical assay; conditions: 50 μM estradiol, 1 mM NAD+, 37° C. for 3 hours; read-out: HSD17β13 IC50
T1 sequence (Q7Z5P4 20-300): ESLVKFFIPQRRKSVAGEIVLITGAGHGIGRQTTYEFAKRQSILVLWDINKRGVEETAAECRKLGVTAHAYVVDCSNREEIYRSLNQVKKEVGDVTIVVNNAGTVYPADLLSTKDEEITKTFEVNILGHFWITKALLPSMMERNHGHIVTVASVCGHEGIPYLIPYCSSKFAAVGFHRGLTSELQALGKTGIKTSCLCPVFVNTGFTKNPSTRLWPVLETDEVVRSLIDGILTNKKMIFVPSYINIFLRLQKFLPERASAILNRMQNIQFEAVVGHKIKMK
In short: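 Enzyme preincubated with inhibitor 20 min at RT in 20 mM Tris pH7.4, 0.002% Tween-20, 0.02% BSA, then reacted 3 h at 37° C with 50 μM estradiol and 1 mM NAD+ (final). NADH formation read by NAD(P)H-Glo luminescence after 1 h at RT.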

| IC50 | SMILES |
| --- | --- |
| 100 to 1000 nM | Cn1nc(-c2cc(C(F)(F)F)c(F)c(O)c2F)c2cnc(C3CCCCN3Cc3ccccc3)nc21 (stereo not shown) [Compound 14, 3-(6-(1-Benzylpiperidin-2-yl)-1-methyl-1H-pyrazolo[3,4-d]pyrimidin-3-yl)-2,6-difluoro-5-(trifluoromethyl)phenol hydrochloride] |
| 100 to 1000 nM | Cn1nc(-c2cc(C(F)(F)F)c(F)c(O)c2F)c2cnc(C3CCCN(Cc4ccccc4)C3)nc21 (stereo not shown) [Compound 14.01, 3-(6-(1-Benzylpiperidin-3-yl)-1-methyl-1H-pyrazolo[3,4-d]pyrimidin-3-yl)-2,6-difluoro-5-(trifluoromethyl)phenol hydrochloride] |
| ≤ 100 nM | Cn1nc(-c2cc(C(F)(F)F)c(F)c(O)c2F)c2cnc(N3CCN(S(C)(=O)=O)CC3CC3CCCCC3)nc21 (stereo not shown) [Compound 15, 3-(6-(2-(Cyclohexylmethyl)-4-(methylsulfonyl)piperazin-1-yl)-1-methyl-1H-pyrazolo[3,4-d]pyrimidin-3-yl)-2,6-difluoro-5-(trifluoromethyl)phenol] |
| ≤ 100 nM | Cn1nc(-c2cc(C(F)(F)F)c(F)c(O)c2F)c2cnc(N3CCN(S(C)(=O)=O)C[C@H]3CC3CCCCC3)nc21 [Compound 15.02, (R)-3-(6-(2-(Cyclohexylmethyl)-4-(methylsulfonyl)piperazin-1-yl)-1-methyl-1H-pyrazolo[3,4-d]pyrimidin-3-yl)-2,6-difluoro-5-(trifluoromethyl)phenol] |
| ≤ 100 nM | Cn1nc(-c2cc(C(F)(F)F)c(F)c(O)c2F)c2cnc(N3CCOCC3CC3CCCCC3)nc21 (stereo not shown) [Compound 15.03, 3-(6-(3-(Cyclohexylmethyl)morpholino)-1-methyl-1H-pyrazolo[3,4-d]pyrimidin-3-yl)-2,6-difluoro-5-(trifluoromethyl)phenol] |
| ≤ 100 nM | Cn1nc(-c2cc(C(F)(F)F)c(F)c(O)c2F)c2cnc(N3CCOC[C@@H]3CC3CCCCC3)nc21 [Compound 15.05, (S)-3-(6-(3-(Cyclohexylmethyl)morpholino)-1-methyl-1H-pyrazolo[3,4-d]pyrimidin-3-yl)-2,6-difluoro-5-(trifluoromethyl)phenol] |
| ≤ 100 nM | Cn1nc(-c2cc(C(F)(F)F)c(F)c(O)c2F)c2cnc(N3CCOCC3Cc3ccccn3)nc21 (stereo not shown) [Compound 15.06, 2,6-Difluoro-3-(1-methyl-6-(3-(pyridin-2-ylmethyl)morpholino)-1H-pyrazolo[3,4-d]pyrimidin-3-yl)-5-(trifluoromethyl)phenol] |
| ≤ 100 nM | Cn1nc(-c2cc(C(F)(F)F)c(F)c(O)c2F)c2cnc(N3CCOCC3Cc3cccnc3)nc21 (stereo not shown) [Compound 15.07, 2,6-Difluoro-3-(1-methyl-6-(3-(pyridin-3-ylmethyl)morpholino)-1H-pyrazolo[3,4-d]pyrimidin-3-yl)-5-(trifluoromethyl)phenol] |
| ≤ 100 nM | Cn1nc(-c2cc(C(F)(F)F)c(F)c(O)c2F)c2cnc(N3CCOCC3Cc3ccncc3)nc21 (stereo not shown) [Compound 15.08, 2,6-Difluoro-3-(1-methyl-6-(3-(pyridin-4-ylmethyl)morpholino)-1H-pyrazolo[3,4-d]pyrimidin-3-yl)-5-(trifluoromethyl)phenol] |
| ≤ 100 nM | Cn1nc(-c2cc(C(F)(F)F)c(F)c(O)c2F)c2cnc(N3CC(=O)NC[C@H]3Cc3ccccc3)nc21 [Compound 15.09, (R)-5-Benzyl-4-(3-(2,4-difluoro-3-hydroxy-5-(trifluoromethyl)phenyl)-1-methyl-1H-pyrazolo[3,4-d]pyrimidin-6-yl)piperazin-2-one] |
| ≤ 100 nM | Cn1nc(-c2cc(C(F)(F)F)c(F)c(O)c2F)c2cnc(N3CC[C@@H]3Cc3ccccc3)nc21 [Compound 15.11, (S)-3-(6-(2-Benzylazetidin-1-yl)-1-methyl-1H-pyrazolo[3,4-d]pyrimidin-3-yl)-2,6-difluoro-5-(trifluoromethyl)phenol] |
| ≤ 100 nM | CCn1nc(-c2cc(C(F)(F)F)c(F)c(O)c2F)c2cnc(N3CCOC[C@H]3Cc3ccccc3)nc21 [Compound 15.12, (R)-3-(6-(3-Benzylmorpholino)-1-ethyl-1H-pyrazolo[3,4-d]pyrimidin-3-yl)-2,6-difluoro-5-(trifluoromethyl)phenol] |
| ≤ 100 nM | Cn1nc(-c2cc(C(F)(F)F)c(F)c(O)c2F)c2cnc(N3CCOC[C@H]3C(C)(C)O)nc21 [Compound 15.13, (S)-2,6-Difluoro-3-(6-(3-(2-hydroxypropan-2-yl)morpholino)-1-methyl-1H-pyrazolo[3,4-d]pyrimidin-3-yl)-5-(trifluoromethyl)phenol] |
